One series concerns artérioles terminales. Kind of series: Skin window in the awake hamster: spontaneous microvascular vasomotion. Format: in vivo. The settings on record: 2 mg/100 g par voie intraveineuse; hamster éveillé; controls: une par minute. An excerpt:
La fenêtre est éclairée par transmission, on observe le lit capillaire au microscope trioculaire. L'image est transformée en vidéosignal par une caméra. L'enregistrement du diamètre des microvaisseaux est réalisé en continu.
Le produit à étudier est administré par voie intra-veineuse.

The subject of series [1] is cellules musculaires lisses précapillaires. Kind of series: Hamster cheek pouch microcirculation under pentobarbital anaesthesia. Type of series: in vivo. The settings on record: 1-2 mg/100 g par voie intraveineuse; animal anesthésié au pentobarbital (contractions abolished).
In series [2] the test system is modèle d'ischémie périphérique chez le rat. In words: Peripheral ischaemia model: microspheres injected into the femoral artery. Format: in vivo. The settings on record: voie intra péritonéale 20 mg/kg. An excerpt: Dans un modèle d'ischémie périphérique chez le rat, l'injection de microsphères dans l'artère fémorale, provoque l'apparition d'un oedème de la patte ainsi qu'une baisse des capacités motrices de l'animal.

The test system of series [3] is cellules endothéliales humaines. Kind of series: Proliferation of human endothelial cells cultured in hypoxia. The source says: (§1) • la néovascularisation est le résultat d'une prolifération anormale de cellules endothéliales en particulier dans un environnement hypoxique. • * Cette situation peut être reproduite in vitro en étudiant une telle prolifération sur une culture de cellules endothéliales humaines placées en hypoxie. […] Tout d'abord dans le modèle classique de néovascularisation de la cornée du lapin (M.A. Gimbrone Jr, R.S. Cotran, S.B. Leafman et A.J. Folkman, J. Natl Cancer Inst. 52).

In series [4] the test system is néovascularisation de la cornée du lapin. Kind of series: Rabbit cornea neovascularisation model. Conditions: administration in situ. Format: in vivo.
Source text: as §1

Series [5] deals with formation de néovaisseaux. Kind of series: Neovascularisation after irreversible venous occlusion by argon laser photocoagulation in the miniature pig. Conditions: voie orale, dose journalière de 100 mg, pendant 4 semaines; 6 porcs miniatures. Format: in vivo, porc miniature. An excerpt: Pournaras, […] Mbl. Augenheilk. 186 (1985) 471-476). Les expériences ont été partiquées chez le porc miniature. Une occlusion veineuse irréversible a été obtenue par photocoagulation au moyen du laser à Argon. L'angiographie fluorescéinique permet de visualiser 4 semaines après l'occlusion, dans les zones où les vaisseaux de suppléance sont insuffisants en nombre pour assurer la fonction de drainage, […]éovascularisation.

The test system of series [6] is endothélium en culture sur sa matrice extracellulaire. In words: Penetration of cancer cells through cultured endothelium on its extracellular matrix. Format: cell-based. Conditions: 10⁻⁴ - 10⁻⁵ M; in vitro.
The test system of a further series is métastases pulmonaires. In words: Pulmonary metastasis model in the mouse. Format: in vivo. Conditions: 25 et 12,5 mg par voie orale; souris.

`CN(C)C(=N)NC(=N)N` [Metformine, N,N-diméthylimidodicarbonimidicdiamide]: the “fréquence de contractions et dilatations des artérioles terminales” value in the series with artérioles terminales stood at 10 par minute. Also, the “contractions et relaxations rythmiques des cellules musculaires lisses précapillaires” value in series [1] is reported as “réapparition des contractions et relaxations rythmiques des cellules musculaires lisses précapillaires”. For the same compound, in series [2], the “motricité (capacités motrices de l'animal)” value is reported as “récupération totale de la motricité” and the “réduction de l'oedème de la patte” value was found to be 60%. Moreover, in series [3] (concentrations de l'ordre de 10⁻⁷ à 10⁻¹² M, hypoxie), the “prolifération de cellules endothéliales humaines en hypoxie” value is “inhibe fortement cette prolifération”. Also, the “cytotoxicité sur ces cultures cellulaires” value in series [3] (cultures de cellules endothéliales humaines) is recorded as “ne présente pas de cytotoxicité”. Besides, the “apparition des néovaisseaux” value in series [4] is “inhibe l'apparition des néovaisseaux”. Besides, the “apparition d'une néovascularisation” value in series [5] is “suppression complète de l'apparition d'une néovascularisation”. The “pénétration de cellules cancéreuses à travers l'endothélium” value in series [6] is listed as “inhibe la pénétration de cellules cancéreuses à travers l'endothélium”. Further, the “baisse du nombre de métastases” value in the series on métastases pulmonaires was determined as 50%.
